This is an account of results in patent US7022875B2, “Thiobutacin and antifungal and antioomycete composition for controlling plant diseases using the same” (Korea University Industry and Academy Cooperation Foundation, priority 2003, dated 2006).

In experiment [1] the test system is Phytophthora capsici infection on pepper plants. The experiment in a line: Control efficacy against Phytophthora blight on pepper plants in a growth room. It counts as in vivo. As to the method:
The commercial fungicide metalaxyl was used to compare the antifungal activity with thiobutacin against Phytophthora capsici infection on pepper plants in a growth room. Before the pepper plant was inoculated with Phytophthora capsici infection, disease severity was determined both for each treated with various concentrations of thiobutacin and metalaxyl and for the untreated control. Disease severity on pepper plants was rated daily after inoculation based on a scale 0-5: 0=no visible disease symptoms; 1=leaves slightly wilted with brownish lesions beginning to appear on stems; 2=30-50% of entire plant diseased; 3=50-70% of entire plant diseased; 4=70-90% of entire plant diseased; and 5=plant dead.

The test system of a further experiment is Phytophthora capsici. As to the kind of experiment: microbe, parasite or virus in culture. As to conditions: 96 h, 28° C., 4 days. It counts as cell-based.
The test system of another experiment is Rhizoctonia solani. The experiment in a line: MIC in microtiter plates. It counts as cell-based.
A further experiment concerns Magnaporthe grisea. The experiment in a line: microbe, parasite or virus in culture. It counts as cell-based.
Experiment [2] relates to Erwinia carotovora subsp. carotovora. The experiment in a line: microbe, parasite or virus in culture. It counts as cell-based. The following applies: Pectobacterium carotovorum, 96 h; 28° C., 4 days.
Experiment [3] concerns Colletotrichum orbiculare. The experiment in a line: MIC in microtiter plates. It counts as cell-based.
For another experiment, the system named is Candida albicans. As to the kind of experiment: microbe, parasite or virus in culture. Format: cell-based. The following applies: 96 h, 28° C., 4 days.
For a further experiment, the system named is Saccharomyces cerevisiae. The experiment in a line: microbe, parasite or virus in culture. Format: cell-based. As to conditions: 96 h, 28° C., 4 days.
For experiment [4], the system named is Xanthomonas campestris pv. Vesicatoria. As to the kind of experiment: microbe, parasite or virus in culture. Format: cell-based. The following applies: 96 h, 28° C., 4 days.
Another experiment has as its system Alternaria mali. The experiment in a line: MIC in microtiter plates. It counts as cell-based.
The test system of another experiment is Ralstonia solanacearum. The experiment in a line: microbe, parasite or virus in culture. Format: cell-based. As to conditions: 96 h.
Another experiment deals with Botrytis cinerea. The experiment in a line: MIC in microtiter plates. Format: cell-based. The following applies: 96 h, 28° C., 4 days, complete inhibition of growth.
In experiment [5] the test system is Fusarium oxysporum f.sp. cucumerinum. The experiment in a line: MIC in microtiter plates. It counts as cell-based.
A further experiment relates to Cladosporium cucumerinum. As to the kind of experiment: MIC in microtiter plates. It counts as cell-based. The following applies: 96 h, 28° C., 4 days, complete inhibition of growth.
The next experiment has as its system Bacillus subtilis. As to the kind of experiment: microbe, parasite or virus in culture. It counts as cell-based. The following applies: 96 h, 28° C., 4 days.
Setting [6] is: from 4 days after inoculation, treated plants.
Setting [7] is: from 5 days after inoculation, 10 μg/ml.
Where [8] appears, read: 96 h, 28° C., 4 days, complete inhibition of growth.

Converted amounts (≈) assume the structure as drawn.

Turning to `COCC(=O)N(c1c(C)cccc1C)C(C)C(=O)OC` (stereo not drawn) [metalaxyl, reference compound], the “disease symptoms on pepper plants” value in [1] (setting [6]) is “did not exhibit any symptoms”; in [1] (setting [7]) it was “slight disease symptoms”; in [1] (from 5 days after inoculation, 50 μg/ml), “exhibited the disease development in the leaves”; in experiment [1] (higher concentrations than 100 μg/ml), “did not show any phytophthora development”.
Consider `CSC(CC(=O)c1ccccc1N)C(=O)O` (stereo not drawn) [thiobutacin, 4-(2-aminophenyl)-4-oxo-2-methylthio-butanoic acid], for which the “disease symptoms on pepper plants” value is reported as “slight damages” in experiment [1] (after 10 days, 100 μg/ml); “did not show any phytophthora infection” in experiment [1] (after 10 days, 500 μg/ml); “did not exhibit any symptoms” in experiment [1] (setting [6]); “exhibited the disease development in the leaves” in experiment [1] (setting [7]). The MIC was 10 µg/mL (≈ 41.8 µM) in the experiment on Phytophthora capsici; above 100 µg/mL against Rhizoctonia solani (setting [8]); above 100 µg/mL in the experiment on Magnaporthe grisea (Pyricularia oryzae, 96 h); above 100 µg/mL in experiment [2]; above 100 µg/mL in experiment [3] (setting [8]); above 100 µg/mL in the experiment with Candida albicans. The MIC was 30 µg/mL (≈ 125 µM) against Saccharomyces cerevisiae; above 100 µg/mL in experiment [4]; above 100 µg/mL in the experiment on Alternaria mali (setting [8]); above 100 µg/mL with Ralstonia solanacearum; 50 µg/mL (≈ 209 µM) against Botrytis cinerea; above 100 µg/mL in experiment [5] (96 h, Fusarium oxysporum f.sp. cucumerinum, 28° C., 4 days, complete inhibition of growth). The figures for the MIC against Cladosporium cucumerinum and against Bacillus subtilis were 50 µg/mL (≈ 209 µM) and above 100 µg/mL, respectively. Also, the “growth inhibition (in words)” value (in the experiment on Rhizoctonia solani; with Magnaporthe grisea (Magnaporthe grisea); in experiment [3]; with Alternaria mali; in experiment [5] (Fusarium oxysporum f. sp. cucumerinum)) was “not inhibited” each time.
